pIC50: −log10 of the molar value. Read-outs that look alike come from different tables or passages of the source.
Tested on: mouse sperm
Experiment: Mouse sperm total motility in vitro (CASA)
Format: cell-based
Conditions: for Emax: Mus musculus, Sperm, 1 h, nanomolar range concentration, read-out: Maximal Motility Inhibition (%); for Emax / Shape of inhibitory dose response on sperm motility: mouse sperm total motility
Description: To characterize the SAR of these compounds, we first evaluated their effects on total sperm motility in vitro. Sperm isolated from the cauda epididymis of mice were incubated with the test compounds in modified Whitten’s medium under non-capacitating conditions. Motility was assessed using a computer-assisted sperm analysis (CASA) system.
All experimental protocols involving animals used in this work were approved by the University of Kansas Medical Center Institutional Animal Care and Use Committee (ACUP number: 22-09-26, 10/2022). C57BL/6 mice were purchased from Harlan (Indianapolis, IN, USA). Spermatozoa were isolated from the cauda of adult mouse epididymis in Whitten’s medium, containing 100 mM NaCl, 4.7 mM KCl, 1.2 mM KH2PO4, 1.2 mM MgSO4, 5.5 mM glucose, 0.8 mM pyruvic acid, 4.8 mM lactic acid, and 40 mM Hepes, as previously described.
Spermatozoa (1 × 10^6 cells) were incubated at 37 °C in 100 μL of Whitten’s medium, with the addition of 1.7 mM CaCl2 and in the absence and presence of different amounts of the tested compounds for 60 min. Then, cells were labeled with the fluorescent nucleic acid stain SYTO 21, which allows for the tracking of the movement of the cell head. After 1 min of incubation with the dye, 5.5 μL aliquots from each sample were taken and placed into a glass cell chamber (Leja Products B.V., Nieuw-Vennep, The Netherlands). Sperm were maintained at 37 °C on a heated platform and viewed with an Olympus BX51 microscope (Olympus, Center Valley, PA, USA) through a 20× phase objective. Images of the moving sperm were captured using a CCD camera. Samples were analyzed by CASA using the Minitube SpermVision Digital Semen Evaluation system (version 3.5; Penetrating Innovations, Verona, WI, USA). An average of 200 cells/field were captured, at a rate of 30 frames per field, and a total of 10 fields in each sample were analyzed. Total sperm motility was obtained from sperm maintained in a non-capacitating medium, while for assessing the hyperactive pattern of motility, typical of sperm capacitation, cells were incubated in Whitten’s medium with the addition of 1.7 mM CaCl2, 25 mM sodium bicarbonate, and 0.5% bovine serum albumin.
(§1) Figure 2 Effect of simplified steroidal analogs on mouse sperm total motility. Sperm was isolated from the cauda epididymis and treated in the absence and presence of the indicated concentrations of each compound. After one hour of incubation, sperm motility was determined by CASA. Values are expressed as the mean ± SEM of three determinations.
as §1, with “4” for “2”, “non-steroidal small compounds” for “simplified steroidal analogs”, “1 h” for “one hour”

[1] = non-steroidal small molecules, mouse sperm motility
[2] = simplified steroid analogs, mouse sperm motility

## C[C@]12CCC(=O)C=C1CC[C@@H]2c1cn(Cc2ccccc2)nn1 [Compound 33, (1S,7aR)-1-(1-Benzyl-1H-1,2,3-triazol-4-yl)-7a-methyl-1,2,3,6,7,7a-hexahydro-5H-inden-5-one]
non-steroidal small molecules
  Emax: 48%
[1]
  pIC50: 10.64

## CC12CCC(=O)C=C1CCC2c1c[nH]nn1 [Compound 35, (1S,7aR)-7a-Methyl-1-(1H-1,2,3-triazol-4-yl)-1,2,3,6,7,7a-hexahydro-5H-inden-one]
non-steroidal small molecules
  Emax: 47%
[1]
  pIC50: 10.15

## C[C@]12CC[C@H]3[C@@H](CC=C4C[C@H](N5CCOCC5)CC[C@@]43C)[C@@H]1CC[C@H]2n1cc(-c2ccccc2)nn1 [Compound 26, 4-((3R,8R,9S,10R,13S,14S,17R)-10,13-Dimethyl-17-(4-phenyl-1H-1,2,3-triazol-1-yl)-2,3,4,7,8,9,10,11,12,13,14,15,16,17-tetradecahydro-1H-cyclopenta[a]phenanthren-3-yl)morpholine]
Simplified steroid analogs
  Emax: ~40%
  Shape of inhibitory dose response on sperm motility: biphasic inhibition
[2]
  pIC50: 10.51

## CC12CCC(=NN=C(N)N)C=C1CCC2C=NN=C(N)N [Compound 41, (E+Z)-2-(((1S,7aR,E)-5-(2-Carbamimidoylhydrazineylidene)-7a-methyl-2,3,5,6,7,7a-hexahydro-1H-inden-1-yl)methylene)hydrazine-1-carboximidamide, reference compound]
non-steroidal small molecules
  Emax: 44%
[1]
  pIC50: 10.43

## C[C@]12CC[C@H]3[C@@H](CC=C4C[C@@H](O)CC[C@@]43C)[C@@H]1CC[C@H]2n1cc(-c2ccccc2)nn1 [Compound 24, (3S,8R,9S,10R,13S,14S,17R)-10,13-Dimethyl-17-(4-phenyl-1H-1,2,3-triazol-1-yl)-2,3,4,7,8,9,10,11,12,13,14,15,16,17-tetradecahydro-1H-cyclopenta[a]phenanthren-3-ol]
Simplified steroid analogs
  Emax: 50%
  Shape of inhibitory dose response on sperm motility: biphasic inhibition
[2]
  pIC50: 10.82

## C[C@]12CC[C@H]3[C@@H](CC=C4C[C@@H](O)CC[C@@]43C)[C@@H]1CC[C@@H]2c1c[nH]nn1 [Compound 15, (3S,8S,9S,10R,13S,14S,17S)-10,13-Dimethyl-17-(1H-1,2,3-triazol-4-yl)-2,3,4,7,8,9,10,11,12,13,14,15,16,17-tetradecahydro-1H-cyclopenta[a]phenanthren-3-ol]
Simplified steroid analogs
  Emax: 42%
  Shape of inhibitory dose response on sperm motility: monotonic inhibitory response
[2]
  pIC50: 10.72
  IC50 (pM): sub-nanomolar range

## CC12CCC(=NN=C(N)N)C=C1CCCC2C=NN=C(N)N (centres unmarked) [Compound 42, (E+Z)-2-((6-(2-Carbamimidoylhydrazineylidene)-8a-methyl-1,2,3,4,6,7,8,8a-octahydronaphthalen-1-yl)methylene)hydrazine-1-carboximidamide]
non-steroidal small molecules
  Emax: 49%
[1]
  pIC50: 9.52

## C[C@]12CC[C@H](OC(=O)[C@@H](N)CCCCN)CC1=CCC1C2CC[C@@]2(C)C1CC[C@@H]2c1cn(Cc2ccccc2)nn1.Cl.Cl (stereo partly drawn) [Compound 19, (3S,10R,13S,17S)-17-(1-Benzyl-1H-1,2,3-triazol-4-yl)-10,13-dimethyl-2,3,4,7,8,9,10,11,12,13,14,15,16,17-tetradecahydro-1H-cyclopenta[a]phenanthren-3-yl L-Lysinate Dihydrochloride]
Simplified steroid analogs
  Emax: ~37%
  Shape of inhibitory dose response on sperm motility: biphasic inhibition
[2]
  pIC50: 10.49

## CC12CCC(=NN=C(N)N)C=C1CCCC2c1cn(Cc2ccccc2)nn1 (centres unmarked) [Compound 40, N’-(5-(1-Benzyl-1H-1,2,3-triazol-4-yl)-4a-methyl-4,4a,5,6,7,8-hexahydronaphthalen-2(3H)-ylidene)amidinohydrazone]
non-steroidal small molecules
  Emax: 49%
[1]
  pIC50: 10.22

Source: article PMC12192727, “Strategies to Develop Na,K-ATPase-α4 Inhibitors as Male Contraceptives” (International Journal of Molecular Sciences, 2025)
